The values that follow come from patent US9326953B2, “Method and system for systemic delivery of growth arresting, lipid-derived bioactive compounds” (priority 2003, dated 2016).

For data set [1], the system named is MDA cells. Put plainly: [3H]thymidine cell proliferation assay. The class given is cell-based, Human. The settings on record: [3H]thymidine incorporation, 10% FBS for 12 h of treatment; read-out: IC50 of C6, inhibition of MDA cell proliferation. As to the method:
To determine the utility of conventional lipid formulations for the delivery of short-chain ceramide to MDA cells, a [^3H]thymidine proliferation assay was performed. Briefly, MDA cells were seeded at 3.5×10^4 cells/well in 24-well plates and grown overnight prior to 24 h of serum starvation. At hour 12 of serum starvation, cells were treated with liposomal or nonliposomal C6 for the remainder of serum starvation. Following serum starvation, media was then supplemented with FBS (10% final concentration) for an additional 12 h, and cellular proliferation was assayed with the addition of 0.5 mCi/ml [^3H]thymidine for the final 4 h of treatment. Cells were washed once with cold PBS and then twice with 10% trichloric acetic acid for 10 min. Cells were solubilized with 0.3 N NaOH, and [^3H]thymidine incorporation into acid-insoluble DNA was assessed with a scintillation counter.
On the technique in general: Dividing cells build labelled thymidine or BrdU into new DNA.

Data set [2] deals with MDA cells. Put plainly: TUNEL staining of cleaved DNA. The class given is cell-based, Human. The protocol:
An investigation to determine whether C6-dependent growth inhibition correlates with enhanced apoptosis was undertaken. To confirm that C6 delivery leads to MDA cell apoptosis, TUNEL analysis (Upstate Biotechnology, Lake Placid, N.Y.) was performed, which stains cleaved DNA, a hallmark of cellular apoptosis (FIG. 7A).

The nature of data set [3]: Toxicity after intravenous injection. In kind it is in vivo. The note with it: injection at 10 mg/kg.

Consider `CCCCCCCCCCCCC/C=C/[C@@H](O)[C@H](CO)NC(=O)CCCCC` [nonliposomal C6, D-erythro-hexanoyl-sphingosine], for which the IC50 in the data set on MDA cells [1] stood at 15 µM. Besides, the “DNA fragmentation (TUNEL) at 16 h” value with MDA cells [2] (20 μM, 16 h of treatment) is given as “induced DNA fragmentation”. In addition, the “DNA fragmentation (TUNEL) at 8 h” value with MDA cells [2] (cycling, serum-fed MDA cells, 8 h) is on record as “no DNA fragmentation”. Moreover, the mice killed in data set [3] is given as 50%.
